From US9200001B2, “Triazolyl PDE10 inhibitors” (Merck Sharp & Dohme Corp., priority 2011, dated 2015) come the findings set out here.

human PDE10A2, sequence (Q9Y233 267-1055): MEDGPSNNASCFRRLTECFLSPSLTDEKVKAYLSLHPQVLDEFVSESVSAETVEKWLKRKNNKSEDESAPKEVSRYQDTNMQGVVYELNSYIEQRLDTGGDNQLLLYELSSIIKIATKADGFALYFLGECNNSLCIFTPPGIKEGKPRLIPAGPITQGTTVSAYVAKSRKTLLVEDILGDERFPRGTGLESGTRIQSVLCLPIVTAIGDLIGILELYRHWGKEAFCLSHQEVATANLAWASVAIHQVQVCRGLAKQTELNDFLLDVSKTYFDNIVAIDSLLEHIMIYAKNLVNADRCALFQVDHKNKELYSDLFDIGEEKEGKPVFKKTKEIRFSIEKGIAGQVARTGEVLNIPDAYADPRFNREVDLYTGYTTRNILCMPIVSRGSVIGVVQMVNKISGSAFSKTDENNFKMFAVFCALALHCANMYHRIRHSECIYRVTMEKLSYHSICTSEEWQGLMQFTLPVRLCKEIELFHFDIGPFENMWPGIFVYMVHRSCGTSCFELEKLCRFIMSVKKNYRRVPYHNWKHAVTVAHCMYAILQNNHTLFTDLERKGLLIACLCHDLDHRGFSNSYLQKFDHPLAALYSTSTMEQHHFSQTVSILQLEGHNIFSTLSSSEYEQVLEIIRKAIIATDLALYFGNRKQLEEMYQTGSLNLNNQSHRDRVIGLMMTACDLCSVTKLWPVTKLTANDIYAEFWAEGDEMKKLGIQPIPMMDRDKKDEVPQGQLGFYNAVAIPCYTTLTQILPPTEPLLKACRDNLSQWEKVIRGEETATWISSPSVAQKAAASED

The assay has as its target human PDE10A2 (Homo sapiens (Human), UniProt Q9Y233). Briefly: PDE10 fluorescence polarization (IMAP FP) inhibition assay. The class given is biochemical. Conditions: FAM-labeled cAMP 50 nM, room temperature, read-out: PDE10a Ki. The protocol:
The activity of the compounds in accordance with the present invention as PDE10 inhibitors may be readily determined without undue experimentation using a fluorescence polarization (FP) methodology that is well known in the art (Huang, W., et al., J. Biomol Screen, 2002, 7: 215).
In a typical experiment the PDE10 inhibitory activity of the compounds of the present invention was determined in accordance with the following experimental method. PDE10A2 was amplified from human fetal brain cDNA (Clontech, Mountain View, Calif.) using a forward primer corresponding to nucleotides 56-77 of human PDE10A2 (Accession No. AF127480, Genbank Identifier 4894716), containing a Kozak consensus sequence, and a reverse primer corresponding to nucleotides 2406-2413 of human PDE10A2 (Accession No. AF127480, Genbank Identifier 4894716). Amplification with Easy-A polymerase (Stratagene, La Jolla, Calif.) was 95° C. for 2 minutes followed by thirty three cycles of 95° C. for 40 seconds, 55° C. for 30 seconds, and 72° C. for 2 minutes 48 seconds. Final extension was 72° C. for 7 minutes. The PCR product was TA cloned into pcDNA3.2-TOPO (Invitrogen, Carlsbad, Calif.) according to standard protocol. AD293 cells with 70-80% confluency were transiently transfected with human PDE10A2/pcDNA3.2-TOPO using Lipofectamine 2000 according to manufacturer specifications (Invitrogen, Carlsbad, Calif.). Cells were harvested 48 hours post-transfection and lysed by sonication (setting 3, 10×5 sec pulses) in a buffer containing 20 mM HEPES, 1 mM EDTA and protease inhibitor cocktail (Roche). Lysate was collected by centrifugation at 75,000×g for 20 minutes. Supernatant containing the cytoplasmic fraction was used for evaluation of PDE10A2 activity. The fluorescence polarization assay for cyclic nucleotide phosphodiesterases was performed using an IMAP® FP kit supplied by Molecular Devices, Sunnyvale, Calif. (product # R8139). IMAP® technology has been applied previously to phosphodiesterase assays (Huang, W., et al., J. Biomol Screen, 2002, 7: 215). Assays were performed at room temperature in 384-well microtiter plates with an incubation volume of 20.2 μL. Solutions of test compounds were prepared in DMSO and serially diluted with DMSO to yield 8 μL of each of 10 solutions differing by 3-fold in concentration, at 32 serial dilutions per plate. 100% inhibition is determined using a known PDE10 inhibitor, which can be any compound that is present at 5,000 times its Ki value in the assay described as follows, such as papaverine (see Siuciak, et al. Neuropharmacology (2006) 51:386-396; Becker, et al. Behav Brain Res (2008) 186(2):155-60; Threlfell, et al., J Pharmacol Exp Ther (2009) 328(3):785-795), 2-{4-[pyridin-4-yl-1-(2,2,2-trifluoroethyl)-1H-pyrazol-3-yl]phenoxymethyl}quinoline succinic acid or 2-[4-(1-methyl-4-pyridin-4-yl-1H-pyrazol-3-yl)-phenoxymethyl]quinoline succinic acid (see Schmidt, et al. J Pharmacol Exp Ther (2008) 325:681-690; Threlfall, et al., J Pharmacol Exp Ther (2009) 328(3): 785-795). 0% of inhibition is determined by using DMSO (1% final concentrations).
A Labcyte Echo 555 (Labcyte, Sunnyvale, Calif.) is used to dispense 200 nL from each well of the titration plate to the 384 well assay plate. A solution of enzyme (1/1600 dilution from aliquots; sufficient to produce 20% substrate conversion) and a separate solution of FAM-labeled cAMP PDE from Molecular Devices (product # R7506), at a final concentration of 50 nM are made in the assay buffer (10 mM Tris HCl, pH 7.2, 10 mM MgCl2, 0.05% NaN3 0.01% Tween-20, and 1 mM DTT). The enzyme and the substrate are then added to the assay plates in two consecutive additions of 10 μL, and then shaken to mix. The reaction is allowed to proceed at room temperature for 30 minutes. A binding solution is then made from the kit components, comprised of 80% Solution A, 20% Solution B and binding reagent at a volume of 1600 the total binding solution. […]
For orientation: Fluorescence polarisation rises when a labelled molecule tumbles more slowly, as on binding a larger partner.
On to `COc1ccc(Cc2nc(C)nn2-c2cc(C#Cc3ccc4ncccc4n3)nc(C)n2)cc1OC` [Cpd 14, 2-((6-(5-(3,4-dimethoxybenzyl)-3-methyl-1H-1,2,4-triazol-1-yl)-2-methylpyrimidin-4-yl)ethynyl)-1,5-naphthyridine], for which the Ki (commonly the equilibrium dissociation constant of an inhibitor or competing ligand from its target) was 0.82 nM.

As to `COc1ncc(Cc2nc(C)nn2-c2cc(CCc3ccc4ccccc4n3)nc(C)n2)nc1OC` [Cpd 15, 2-(2-(6-(5-((5,6-dimethoxypyrazin-2-yl)methyl)-3-methyl-1H-1,2,4-triazol-1-yl)-2-methylpyrimidin-4-yl)ethyl)quinoline], the Ki amounted to 0.056 nM.

Consider `COc1ccc(Cc2nc(C)nn2-c2cc(CCc3ccc4ncccc4n3)nc(C)n2)cc1OC` [Cpd 16, 2-(2-(6-(5-(3,4-dimethoxybenzyl)-3-methyl-1H-1,2,4-triazol-1-yl)-2-methylpyrimidin-4-yl)ethyl)-1,5-naphthyridine], for which the Ki stood at 0.027 nM.

For the compound `COc1ccc(Cc2nc(C)nn2-c2cc(/C=C/c3ccc4ccccc4n3)nc(C)n2)cc1OC` [Cpd 18, (E)-2-(2-(6-(5-(3,4-dimethoxybenzyl)-3-methyl-1H-1,2,4-triazol-1-yl)-2-methylpyrimidin-4-yl)vinyl)quinoline], the Ki amounted to 0.002 nM.

For `COc1ccc(Cc2nc(C)nn2-c2cc(/C=C/c3ccccn3)nc(C)n2)cc1OC` [Cpd 19, (E)-4-(5-(3,4-dimethoxybenzyl)-3-methyl-1H-1,2,4-triazol-1-yl)-2-methyl-6-(2-(pyridin-2-yl)vinyl)pyrimidine], the inhibition constant Ki came to 0.002 nM.

For `COc1ccc(Cc2nc(C)nn2-c2cc(/C=C/c3ccc(C)cn3)nc(C)n2)cc1OC` [Cpd 20, (E)-4-(5-(3,4-dimethoxybenzyl)-3-methyl-1H-1,2,4-triazol-1-yl)-2-methyl-6-(2-(5-methylpyridin-2-yl)vinyl)pyrimidine], the Ki was 0.11 nM.

Consider `COc1ccc(Cc2nc(C)nn2-c2cc(C3CC3c3nc(C)no3)nc(C)n2)cc1OC` (stereo not drawn) [Cpd 24, 5-(2-(6-(5-(3,4-dimethoxybenzyl)-3-methyl-1H-1,2,4-triazol-1-yl)-2-methylpyrimidin-4-yl)cyclopropyl)-3-methyl-1,2,4-oxadiazole], for which the Ki was 248 nM.

For `COc1ccc(Cc2nc(C)nn2-c2cc([C@H]3C[C@@H]3c3nc4ccccc4[nH]3)nc(C)n2)cc1OC` [Cpd 25, 2-((1S,2S)-2-(6-(5-(3,4-dimethoxybenzyl)-3-methyl-1H-1,2,4-triazol-1-yl)-2-methylpyrimidin-4-yl)cyclopropyl)-1H-benzo[d]imidazole], the Ki worked out at 0.027 nM.

Take `COc1ccc(Cc2nc(C)nn2-c2cc([C@@H]3C[C@H]3c3nc4ccccc4[nH]3)nc(C)n2)cc1OC` [Cpd 26, 2-((1R,2R)-2-(6-(5-(3,4-dimethoxybenzyl)-3-methyl-1H-1,2,4-triazol-1-yl)-2-methylpyrimidin-4-yl)cyclopropyl)-1H-benzo[d]imidazole]: the inhibition constant Ki stood at 0.005 nM.

`COc1ccc(Cc2nc(C)nn2-c2cc(C3CC3c3nnc(C)o3)nc(C)n2)cc1OC` (stereo not drawn) [Cpd 27, 2-(2-(6-(5-(3,4-dimethoxybenzyl)-3-methyl-1H-1,2,4-triazol-1-yl)-2-methylpyrimidin-4-yl)cyclopropyl)-5-methyl-1,3,4-oxadiazole]: the inhibition constant (Ki) was determined as 88 nM.

For `COc1ccc(Cc2nc(C)nn2-c2cc(C3CC3c3nc4ccccc4n3C)nc(C)n2)cc1OC` (stereo not drawn) [Cpd 28, 2-(2-(6-(5-(3,4-dimethoxybenzyl)-3-methyl-1H-1,2,4-triazol-1-yl)-2-methylpyrimidin-4-yl)cyclopropyl)-1-methyl-1H-benzo[d]imidazole], the Ki came to 0.003 nM.

With `COc1ccc(Cc2nc(C)nn2-c2cc(C3CC3c3nnc(C)s3)nc(C)n2)cc1OC` (stereo not drawn) [Cpd 29, 2-(2-(6-(5-(3,4-dimethoxybenzyl)-3-methyl-1H-1,2,4-triazol-1-yl)-2-methylpyrimidin-4-yl)cyclopropyl)-5-methyl-1,3,4-thiadiazole], the inhibitory constant (Ki) amounted to 9.8 nM.

For `COc1ccc(Cc2nc(C)nn2-c2cc(C3CC3c3ccc(C)cn3)nc(C)n2)cc1OC` (stereo not drawn) [Cpd 35, 4-(5-(3,4-dimethoxybenzyl)-3-methyl-1H-1,2,4-triazol-1-yl)-2-methyl-6-(2-(5-methylpyridin-2-yl)cyclopropyl)pyrimidine], the Ki was found to be 0.21 nM.

As for `Cc1nc(C2CC2c2nc3ccccc3n2C)cc(-n2nc(C)nc2C)n1` (stereo not drawn) [Cpd 36, 2-(2-(6-(3,5-dimethyl-1H-1,2,4-triazol-1-yl)-2-methylpyrimidin-4-yl)cyclopropyl)-1-methyl-1H-benzo[d]imidazole], the Ki was 3.5 nM.

Take `Cc1nc([C@@H]2C[C@H]2c2nc3ccccc3n2C)cc(-n2nc(C)nc2C)n1` [Cpd 37, 2-((1R,2R)-2-(6-(3,5-dimethyl-1H-1,2,4-triazol-1-yl)-2-methylpyrimidin-4-yl)cyclopropyl)-1-methyl-1H-benzo[d]imidazole]: the Ki came to 1.4 nM.

For `COc1ccc(Cc2nc(C)nn2-c2cc(C3CC3c3nc4ccccc4[nH]3)nc(C)n2)cc1OC` (stereo not drawn) [Cpd 38, 2-(2-(6-(5-(3,4-dimethoxybenzyl)-3-methyl-1H-1,2,4-triazol-1-yl)-2-methylpyrimidin-4-yl)cyclopropyl)-1H-benzo[d]imidazole], the inhibition constant (Ki) was 0.005 nM.

In the case of `Cc1nc(C2CC2c2nnc(C)o2)cc(-n2nc(C)nc2C)n1` (stereo not drawn) [Cpd 39, 3,5-dimethyl-1-(2-methyl-6-(2-(5-methyl-1,3,4-oxadiazol-2-yl)cyclopropyl)pyrimidin-4-yl)-1H-1,2,4-triazol-4-ium], the Ki was determined as 918 nM.

For the compound `Cc1nc(C2CC2c2nnc(C)s2)cc(-n2nc(C)nc2C)n1` (stereo not drawn) [Cpd 40, 2-(2-(6-(3,5-dimethyl-1H-1,2,4-triazol-1-yl)-2-methylpyrimidin-4-yl)cyclopropyl)-5-methyl-1,3,4-thiadiazole], the Ki turned out to be 124 nM.

As for `Cc1nc(C2CC2c2nc3ccccc3[nH]2)cc(-n2nc(C)nc2C)n1` (stereo not drawn) [Cpd 41, 2-(2-(6-(3,5-dimethyl-1H-1,2,4-triazol-1-yl)-2-methylpyrimidin-4-yl)cyclopropyl)-1H-benzo[d]imidazole], the inhibition constant Ki was 6.8 nM.

Consider `COc1ccc(Cc2nc(C)nn2-c2cc(C3CC3c3cc4n(n3)CCC4)nc(C)n2)cc1OC` (stereo not drawn) [Cpd 42, 2-(2-(6-(5-(3,4-dimethoxybenzyl)-3-methyl-1H-1,2,4-triazol-1-yl)-2-methylpyrimidin-4-yl)cyclopropyl)-5,6-dihydro-4H-pyrrolo[1,2-b]pyrazole], for which the Ki was determined as 0.5 nM.

With `COc1ccc(C2CC2c2cc(-n3nc(C)nc3Cc3ccc(OC)c(OC)c3)nc(C)n2)nc1` (stereo not drawn) [Cpd 43, 4-(5-(3,4-dimethoxybenzyl)-3-methyl-1H-1,2,4-triazol-1-yl)-6-(2-(5-methoxypyridin-2-yl)cyclopropyl)-2-methylpyrimidine], the Ki came out at 0.39 nM.

As to `Cc1ccc(C2CC2c2cc(-n3nc(C)nc3Cc3ccccc3)nc(C)n2)nc1` (stereo not drawn) [Cpd 49, 4-(5-benzyl-3-methyl-1H-1,2,4-tiazol-1-yl)-2-methyl-6-(2-(5-methylpyridin-2-yl)cyclopropyl)pyrimidine], the inhibition constant (Ki) came to 0.21 nM.

With `Cc1ccc(CCc2cc(-n3nc(C)nc3C)nc(C)n2)nc1` [Cpd 50, 4-(3,5-dimethyl-1H-1,2,4-triazol-1-yl)-2-methyl-6-(2-(5-methylpyridin-2-yl)ethyl)pyrimidine], the Ki turned out to be 0.14 nM.

On to `Cc1nc(C2CC2c2nc3ccccc3n2-c2ccccc2)cc(-n2nc(C)nc2C)n1` (stereo not drawn) [Cpd 51, 2-(2-(6-(3,5-dimethyl-1H-1,2,4-triazol-1-yl)-2-methylpyrimidin-4-yl)cyclopropyl)-1-phenyl-1H-benzo[d]imidazole], for which the inhibitory constant (Ki) turned out to be 38.8 nM.
